The source of these data is patent US8334258B2, “Method for induction and enhancement of apoptosis in tumor cells” (Georg-August-Universität Göttingen Stiftung Öffentlichen …, priority 2006, dated 2012).

The subject of experiment [1] is MCF-7 breast cancer cell line. The experiment is described as follows: Apoptosis assay, flow cytometric analysis of DNA degradation (propidium iodide). In kind it is cell-based, human. As to conditions: MCF-7, FIG. 1 (B). For orientation: Flow cytometry measures light scatter and fluorescence of single cells or particles in a stream.
A further experiment relates to cancer cells. The following applies: Gründker et al. 2004; cited from earlier work.

Square brackets hold non-standard residues; d marks the D form. pGlu = O=C1CC[C@@H](C(=O)O)N1

Turning to “[D-Lys^6]GnRH-II ([pGlu]HWSH[dK]WYPG-NH2; SMILES NCCCC[C@@H](NC(=O)[C@H](Cc1c[nH]cn1)NC(=O)[C@H](CO)NC(=O)[C@H](Cc1c[nH]c2ccccc12)NC(=O)[C@H](Cc1c[nH]cn1)NC(=O)[C@@H]1CCC(=O)N1)C(=O)N[C@@H](Cc1c[nH]c2ccccc12)C(=O)N[C@@H](Cc1ccc(O)cc1)C(=O)N1CCC[C@H]1C(=O)NCC(N)=O) [GnRH-II agonist]”, the “induction of apoptotic cell death by GnRH-II agonist” value in experiment [1] was “did not induce apoptotic cell death”. In addition, in the experiment with cancer cells, the “antiproliferative effects after GnRH-I receptor knock-out” value is reported as “still existing”.
